Consider nine compounds from patent US11352344B2, “Antagonists of the muscarinic acetylcholine receptor M4” (Vanderbilt University, priority 2017, dated 2022).

The subject of one test is mice. Description: haloperidol-induced catalepsy, a model of parkinsonian motor disability. Format: in vivo. The text has this:
Furthermore, haloperidol-induced catalepsy, a model of parkinsonian motor disability, is reduced in M4 knockout mice as compared to wild-type controls. […] The reversal by scopolamine was uncommonly robust and more pronounced than we observe with agents targeting a number of other targets being evaluated for potential antiparkinsonian effects, including metabotropic glutamate (mGlu) receptors mGlu4 or mGlu5, A2A adenosine receptors, and NMDA receptors. […] Taken together with the extensive studies of M4 modulation of basal ganglia and motor function, these studies provide compelling evidence that M4 is the dominant mAChR subtype involved in the antiparkinsonian effects of non-selective mAChR antagonists and provide support for discovery and development of selective M4 antagonists for treatment of neurodegenerative disease such as PD, dystonia, tardive dyskinesia and other movement disorders.

For another test, the system named is M4 knockout mice. Conditions: but not the other four mAChR subtypes (M1-3,5); cited from earlier work.
For a further test, the target named is T1, Human M4 (Homo sapiens, UniProt P08173).
T1 construct: expressed in transfected cells; host or cells: CHO-K1 (Chinese hamster ovary) cells, stably co-transfected with Gqi5
T1 sequence (P08173 1-479): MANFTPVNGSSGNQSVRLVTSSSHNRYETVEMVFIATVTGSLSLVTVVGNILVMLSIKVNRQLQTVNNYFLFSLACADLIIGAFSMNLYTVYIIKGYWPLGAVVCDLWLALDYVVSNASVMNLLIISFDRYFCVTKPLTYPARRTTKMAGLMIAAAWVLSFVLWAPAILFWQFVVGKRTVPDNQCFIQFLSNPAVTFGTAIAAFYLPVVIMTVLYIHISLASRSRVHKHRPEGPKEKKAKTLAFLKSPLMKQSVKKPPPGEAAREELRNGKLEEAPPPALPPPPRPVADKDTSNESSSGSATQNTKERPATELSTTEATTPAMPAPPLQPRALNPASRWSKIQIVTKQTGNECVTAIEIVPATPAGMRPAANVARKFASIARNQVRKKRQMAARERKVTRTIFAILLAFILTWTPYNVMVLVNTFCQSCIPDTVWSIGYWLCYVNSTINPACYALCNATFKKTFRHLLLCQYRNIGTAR
Description: mAChR M4 cell-based functional assay (calcium flux, antagonism of EC80 acetylcholine response). Conditions: for remaining activity at 30 µM: % ACh maximum at 30 μM, human M4, read-out: Emin; for IC50: M4/Gqi5/CHO-K1 cells, decrease of response to EC80 acetylcholine. As for the experimental part: Human or rat M4 cDNA, along with the chimeric G protein Gqi5, were transfected into Chinese hamster ovary (CHO-K1) cells purchased from the American Type Culture Collection using Lipofectamine2000. M4/Gqi5/CHO cells were grown in Ham's F-12 medium containing 10% heat-inactivated fetal bovine serum (FBS), 20 mM HEPES, 500 μg/mL G418 sulfate, and 200 μg/mL Hygromycin B.
For high throughput measurement of agonist-evoked increases in intracellular calcium, CHO-K1 cells stably expressing muscarinic receptors were plated in growth medium lacking G418 and hygromycin at 15,000 cells/20 μL/well in Greiner 384-well black-walled, tissue culture (TC)-treated, clear-bottom plates (VWR). Cells were incubated overnight at 37° C. and 5% CO2. The next day, cells were washed using an ELX 405 (BioTek) with assay buffer; the final volume was then aspirated to 20 μL. Next, 20 μL of a 2.3 μM stock of Fluo-4/acetoxymethyl ester (Invitrogen, Carlsbad, Calif.), prepared as a 2.3 mM stock in DMSO and mixed in a 1:1 ratio with 10% (w/v) Pluronic F-127 and diluted in assay buffer, was added to the wells and the cell plates were incubated for 50 min at 37° C. and 5% CO2. Dye was removed by washing with the ELX 405 and the final volume was aspirated to 20 μL. Compound master plates were formatted in a 10 point concentration-response curve (CRC) format (1:3 dilutions) in 100% DMSO with a starting concentration of 10 or 1 mM using a BRAVO liquid handler (Agilent). Test compound CRCs were then transferred to daughter plates (240 nL) using the Echo acoustic plate reformatter (Labcyte, Sunnyvale, Calif.) and then diluted into assay buffer (40 μL) to a 2× stock using a Thermo Fisher Combi (Thermo Fisher Scientific, Waltham, Mass.).
Calcium flux was measured using the Functional Drug Screening System (FDSS) 6000 or 7000 (Hamamatsu Corporation, Tokyo, Japan) as an increase in the fluorescent static ratio. Compounds were applied to cells (20 μL, 2×) using the automated system of the FDSS at 2 seconds into the protocol and the data were collected at 1 Hz. At 143 s, 10 μL of an EC20 concentration of the muscarinic receptor agonist acetylcholine was added (5×), followed by the addition of 12 μL of an EC80 concentration of acetylcholine at the 268 s time point (5×). Agonist activity was analyzed as a concentration-dependent increase in calcium mobilization upon compound addition. Positive allosteric modulator activity was analyzed as a concentration-dependent increase in the EC20 acetylcholine response. Antagonist activity was analyzed as a concentration-dependent decrease in the EC80 acetylcholine response; for the purposes of the tables herein, an IC50 (inhibitory concentration 50) was calculated as a concentration-dependent decrease of the response elicited by an EC80 concentration of acetylcholine. Concentration-response curves were generated using a four-parameter logistical equation in XLFit curve fitting software (IDBS, Bridgewater, N.J.) for Excel (Microsoft, Redmond, Wash.) or Prism (GraphPad Software, Inc., San Diego, Calif.) or the Dotmatics software platform (Dotmatics, Bishop's Stortford, UK).
Compounds were synthesized as described above. Activity (IC50 and Emin) was determined in the mAChR M4 cell-based functional assay as described above and the data are shown in Table 5. The compound numbers correspond to the compound numbers used in Examples 1-4 and Tables 1-4.

As for `CN1[C@@H]2C[C@@H](OC(=O)[C@H](CO)c3ccccc3)C[C@H]1[C@@H]1O[C@@H]12` [scopolamine], in the test on mice (M4 KO mice), the “reducing catalepsy induced by haloperidol” value is given as “ineffective”. Also, the “reversal of catalepsy induced by haloperidol” value in the test on mice (WT mice) is listed as “completely reversed”. Moreover, the locomotor-activating effects entry with M4 knockout mice is reported as “dramatically reduced”.
Take `Cc1cnn(C)c1-c1ccc(NCC2CCC3CN(CCC(C)(C)C)CC23)nn1` (stereo not shown) [Compound 19, N-[[2-(3,3-Dimethylbutyl)-3,3a,4,5,6,6a-hexahydro-1H-cyclopenta[c]pyrrol-4-yl]methyl]-6-(2,4-dimethylpyrazol-3-yl)pyridazin-3-amine]: on Human M4, the remaining activity at 30 µM stood at 5.11% and the IC50 came to 149 nM.
With `Cc1cnn(C)c1-c1ccc(OC2CCC3CN(CCC(C)(C)C)CC32)nn1` (stereo not shown) [Compound 5, 2-(3,3-dimethylbutyl)-4-[6-(2,4-dimethylpyrazol-3-yl)pyridazin-3-yl]oxy-3,3a,4,5,6,6a-hexahydro-1H-cyclopenta[c]pyrrole], on Human M4, the remaining activity at 30 µM came to 9.66% and the IC50 was 3570 nM.
For the compound `Cc1cnn(C)c1-c1ccc(NCC2CCC3CN(Cc4ccccc4)CC23)nn1` (stereo not shown) [Compound 26, N-[(2-benzyl-3,3a,4,5,6,6a-hexahydro-1H-cyclopenta[c]pyrrol-4-yl)methyl]-6-(2,4-dimethylpyrazol-3-yl)pyridazin-3-amine], at Human M4, the remaining activity at 30 µM was determined as 16.1% and the IC50 is above 10000 nM.
`Cc1cnn(C)c1-c1ccc(NCCC2CCC3CN(CCCc4ccccc4)CC23)nn1` (stereo not shown) [Compound 17, 6-(2,4-dimethylpyrazol-3-yl)-N-[2-[2-(3-phenylpropyl)-3,3a,4,5,6,6a-hexahydro-1H-cyclopenta[c]pyrrol-4-yl]ethyl]pyridazin-3-amine]: at Human M4, the remaining activity at 30 µM came out at 5.4% and the IC50 amounted to 1050 nM.
Consider `Cc1cnn(C)c1-c1ccc(NCCC2CCC3CN(CCc4ccccc4)CC23)nn1` (stereo not shown) [Compound 16, 6-(2,4-dimethylpyrazol-3-yl)-N-[2-[2-(2-phenylethyl)-3,3a,4,5,6,6a-hexahydro-1H-cyclopenta[c]pyrrol-4-yl]ethyl]pyridazin-3-amine], for which, at Human M4, the remaining activity at 30 µM came to 6.59% and the IC50 is 2210 nM.
As to `Cc1cnn(C)c1-c1ccc(NC2CCC3CN(CC45CC6CC(CC(C6)C4)C5)CC32)nn1` (stereo not shown) [Compound 2, 2-(1-adamantylmethyl)-N-[6-(2,4-dimethylpyrazol-3-yl)pyridazin-3-yl]-3,3a,4,5,6,6a-hexahydro-1H-cyclopenta[c]pyrrol-4-amine], at Human M4, the remaining activity at 30 µM was found to be 8.16% and the half-inhibitory concentration (IC50) stood at 2170 nM.
Consider `Cc1cnn(C)c1-c1ccc(NCCC2CCC3CN(CC4CCOCC4)CC23)nn1` (stereo not shown) [Compound 12, 6-(2,4-dimethylpyrazol-3-yl)-N-[2-[2-(tetrahydropyran-4-ylmethyl)-3,3a,4,5,6,6a-hexahydro-1H-cyclopenta[c]pyrrol-4-yl]ethyl]pyridazin-3-amine], for which, at Human M4, the remaining activity at 30 µM is 29.4% and the IC50 is above 10000 nM.
For `Cc1cnn(C)c1-c1ccc(NCC2CCC3CN(CC45CC6CC(CC(C6)C4)C5)CC23)nn1` (stereo not shown) [Compound 20, N-[[2-(1-adamantylmethyl)-3,3a,4,5,6,6a-hexahydro-1H-cyclopenta[c]pyrrol-4-yl]methyl]-6-(2,4-dimethylpyrazol-3-yl)pyridazin-3-amine], at Human M4, the remaining activity at 30 µM turned out to be 4.4% and the IC50 was determined as 53 nM.
